Biological target: Transient receptor potential cation channel subfamily V member 1 (Homo sapiens, UniProt Q8NER1)
Assay: Ca2+ Influx Functional Assay for the Determination of in Vitro Activity.
Protocol: The functional antagonist activity of compounds at the TRPV1 receptor was determined with a Ca2+ influx assay by measuring the effect on capsaicin (0.05 uM) evoked increase in intracellular Ca2+ levels using cells stably expressing recombinant human TRPV1. All compounds were tested over an 11-point half-log concentration range. The fluorescent Ca2+ chelating dye fluo-4 was used as an indicator of the relative levels of Ca2+ in a 96-well format using a fluorescence imaging plate reader. Fluorescence readings were made at 1-5 s intervals over the 240 s course of the experimental run. The peak increase in relative fluorescence units was calculated and expressed as a percentage of the 0.05 uM capsaicin (control) response. Curve fits of the data were solved using a four-parameter logistic Hill equation in GraphPad Prism, and IC50 values were calculated.

Sequence of Transient receptor potential cation channel subfamily V member 1 (Q8NER1 whole entry): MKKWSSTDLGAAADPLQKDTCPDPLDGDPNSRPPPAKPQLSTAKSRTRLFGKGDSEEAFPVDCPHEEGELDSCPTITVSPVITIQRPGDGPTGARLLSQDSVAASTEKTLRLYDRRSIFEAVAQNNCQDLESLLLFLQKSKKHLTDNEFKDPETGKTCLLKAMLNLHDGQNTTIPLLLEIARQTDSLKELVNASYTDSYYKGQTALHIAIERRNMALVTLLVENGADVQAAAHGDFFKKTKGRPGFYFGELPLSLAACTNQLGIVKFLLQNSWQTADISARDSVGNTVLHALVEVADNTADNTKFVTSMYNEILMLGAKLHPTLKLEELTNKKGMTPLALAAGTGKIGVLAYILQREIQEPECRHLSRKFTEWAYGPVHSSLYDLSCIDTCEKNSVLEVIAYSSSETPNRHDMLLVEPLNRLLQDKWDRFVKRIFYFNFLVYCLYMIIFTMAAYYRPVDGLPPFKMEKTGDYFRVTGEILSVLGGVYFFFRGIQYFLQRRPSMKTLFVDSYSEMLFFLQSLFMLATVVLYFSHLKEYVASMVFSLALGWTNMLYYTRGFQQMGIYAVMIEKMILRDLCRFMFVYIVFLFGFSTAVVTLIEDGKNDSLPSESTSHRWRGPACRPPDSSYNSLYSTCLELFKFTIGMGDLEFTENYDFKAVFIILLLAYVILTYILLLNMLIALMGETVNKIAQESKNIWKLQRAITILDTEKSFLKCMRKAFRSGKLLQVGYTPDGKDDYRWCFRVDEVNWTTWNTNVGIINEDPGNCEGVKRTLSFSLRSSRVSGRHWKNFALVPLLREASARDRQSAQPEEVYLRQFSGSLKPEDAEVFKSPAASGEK

Row | SMILES | EC50 (pH 7.4, 22 °C) | EC50
1 | O=C(NCc1ccc(N2CCCCCCC2)cc1)Nc1cccc2cnccc12 [3-{[4-(azocan-1-yl)phenyl]methyl}-1-isoquinolin-5-ylurea] | 4.7 nM | 
2 | O=C(NCc1ccc(N2[C@@H]3CCC[C@H]2CC3)c(C(F)(F)F)c1)Nc1cccc2[nH]ncc12 [1-({4-[(1R,5S)-8-azabicyclo[3.2.1]octan-8-yl]-3-(trifluoromethyl)phenyl}methyl)-3-1H-indazol-4-ylurea] |  | 26.9 nM
3 | O=C1C[C@H]2CC[C@@H](C1)N2c1cc(F)c(CNC(=O)Nc2cccc3[nH]ncc23)cc1F [1-({2,5-difluoro-4-[(1R,5S)-3-oxo-8-azabicyclo[3.2.1]octan-8-yl]phenyl}methyl)-3-1H-indazol-4-ylurea] |  | 157 nM
4 | O=C(NCc1ccc(N2[C@@H]3CCC[C@H]2CC3)c(F)c1)Nc1cccc2[nH]ncc12 [1-({4-[(1R,5S)-8-azabicyclo[3.2.1]octan-8-yl]-3-fluorophenyl}methyl)-3-1H-indazol-4-ylurea] |  | 14.8 nM
5 | CC1CCN(c2ccc(CNC(=O)Nc3cccc4cnccc34)cc2)CC1 [1-isoquinolin-5-yl-3-{[4-(4-methylpiperidin-1-yl)phenyl]methyl}urea] | 9.3 nM | 
6 | O=C(NCc1ccc(N2[C@@H]3CCC[C@H]2CC3)cc1C(F)(F)F)Nc1cccc2[nH]ncc12 [1-({4-[(1R,5S)-8-azabicyclo[3.2.1]octan-8-yl]-2-(trifluoromethyl)phenyl}methyl)-3-1H-indazol-4-ylurea] | 54.5 nM | 
7 | CN(C)c1ccc(CNC(=O)Nc2cccc3cnccc23)cc1 [3-{[4-(dimethylamino)phenyl]methyl}-1-isoquinolin-5-ylurea] | 157 nM | 
8 | O=C(NCc1ccc(N2[C@@H]3CCC[C@H]2CC3)cc1Cl)Nc1cccc2[nH]ncc12 [1-({4-[(1R,5S)-8-azabicyclo[3.2.1]octan-8-yl]-2-chlorophenyl}methyl)-3-1H-indazol-4-ylurea] | 58.8 nM | 
9 | O=C(NCc1ccc(N2[C@@H]3CCC[C@H]2CC3)c(Br)c1)Nc1cccc2[nH]ncc12 [1-({4-[(1R,5S)-8-azabicyclo[3.2.1]octan-8-yl]-3-bromophenyl}methyl)-3-1H-indazol-4-ylurea] |  | 43.2 nM
10 | O=C(NCc1cc(F)c(N2[C@@H]3CC[C@H]2CC2(C3)OCCO2)cc1F)Nc1cccc2[nH]ncc12 [1-({4-[(1S,5R)-8-azaspiro[bicyclo[3.2.1]octane-3,2'-[1,3]dioxolane]]-2,5-difluorophenyl}methyl)-3-1H-indazol-4-ylurea] |  | 82 nM
11 | O=C(NCc1cc(F)c(N2[C@@H]3CCC[C@H]2CC3)c(F)c1)Nc1cccc2[nH]ncc12 [1-({4-[(1R,5S)-8-azabicyclo[3.2.1]octan-8-yl]-3,5-difluorophenyl}methyl)-3-1H-indazol-4-ylurea] |  | 12.6 nM
12 | O=C(NCc1ccc(N2[C@@H]3CCC[C@H]2CC3)cc1)Nc1cccc2cnccc12 [3-({4-[(1R,5S)-8-azabicyclo[3.2.1]octan-8-yl]phenyl}methyl)-1-isoquinolin-5-ylurea] | 3.3 nM | 
13 | O=C(NCc1cc(F)c(N2CCOCC2)c(F)c1)Nc1cccc2cnccc12 [3-{[3,5-difluoro-4-(morpholin-4-yl)phenyl]methyl}-1-isoquinolin-5-ylurea] | 9.3 nM | 
14 | Cc1cc(N2[C@@H]3CCC[C@H]2CC3)ccc1CNC(=O)Nc1cccc2[nH]ncc12 [1-({4-[(1R,5S)-8-azabicyclo[3.2.1]octan-8-yl]-2-methylphenyl}methyl)-3-1H-indazol-4-ylurea] |  | 29 nM
15 | O=C(NCc1cc(F)c(N2CCCCCC2)c(F)c1)Nc1cccc2[nH]ncc12 [1-{[4-(azepan-1-yl)-3,5-difluorophenyl]methyl}-3-1H-indazol-4-ylurea] | 39.3 nM | 
16 | O=C(NCc1ccc(N2CCCCCC2)cc1C(F)(F)F)Nc1cccc2[nH]ncc12 [1-{[4-(azepan-1-yl)-2-(trifluoromethyl)phenyl]methyl}-3-1H-indazol-4-ylurea] | 133 nM | 
17 | O=C(NCc1ccc(N2[C@@H]3CCC[C@H]2CC3)c(Cl)c1)Nc1cccc2[nH]ncc12 [1-({4-[(1R,5S)-8-azabicyclo[3.2.1]octan-8-yl]-3-chlorophenyl}methyl)-3-1H-indazol-4-ylurea] |  | 20.4 nM
18 | CC1CN(c2ccc(CNC(=O)Nc3cccc4cnccc34)cc2)CC(C)O1 (stereo not given) [3-{[4-(2,6-dimethylmorpholin-4-yl)phenyl]methyl}-1-isoquinolin-5-ylurea] | 258 nM | 
19 | O=C(NCc1ccc(N2CCOCC2)cc1)Nc1cccc2cnccc12 [1-isoquinolin-5-yl-3-{[4-(morpholin-4-yl)phenyl]methyl}urea] | 91 nM | 
20 | O=C(NCc1ccc(N2CCCCCC2)cc1C(F)(F)F)Nc1cccc2cnccc12 [3-{[4-(azepan-1-yl)-2-(trifluoromethyl)phenyl]methyl}-1-isoquinolin-5-ylurea] | 5.7 nM | 
21 | O=C(NCc1ccc(N2CCCCCC2)cc1Cl)Nc1cccc2cnccc12 [3-{[4-(azepan-1-yl)-2-chlorophenyl]methyl}-1-isoquinolin-5-ylurea] | 5.2 nM | 
22 | O=C(NCc1ccc(N2[C@@H]3CCC[C@H]2CC3)c(F)c1F)Nc1cccc2[nH]ncc12 [1-({4-[(1R,5S)-8-azabicyclo[3.2.1]octan-8-yl]-2,3-difluorophenyl}methyl)-3-1H-indazol-4-ylurea] |  | 25.5 nM
23 | Cc1cc2c(NC(=O)NCc3ccc(N4CCCCCC4)cc3)cccc2cn1 [3-{[4-(azepan-1-yl)phenyl]methyl}-1-(3-methylisoquinolin-5-yl)urea] | 3.8 nM | 
24 | O=C(NCc1ccc(N2[C@@H]3CCC[C@H]2CC3)cc1)Nc1cccc2[nH]ncc12 [1-({4-[(1R,5S)-8-azabicyclo[3.2.1]octan-8-yl]phenyl}methyl)-3-1H-indazol-4-ylurea] | 18 nM | 
25 | CCN1CCc2cc(CNC(=O)Nc3cccc4[nH]ncc34)ccc21 [1-[(1-ethyl-2,3-dihydro-1H-indol-5-yl)methyl]-3-1H-indazol-4-ylurea] |  | 285 nM

The remaining lines, values ahead:

Row | EC50 (pH 7.4, 22 °C) | EC50 | SMILES
26 | 2.1 nM |  | O=C(NCc1ccc(C(F)(F)F)cc1)Nc1cccc2cnccc12 [1-isoquinolin-5-yl-3-{[4-(trifluoromethyl)phenyl]methyl}urea]
27 | 156 nM |  | O=C(NCc1ccc(N2CCOCC2)cc1)Nc1cccc2cnc(Cl)cc12 [1-(3-chloroisoquinolin-5-yl)-3-{[4-(morpholin-4-yl)phenyl]methyl}urea]
28 |  | 35.3 nM | CC(C)c1cc(N2[C@@H]3CCC[C@H]2CC3)ccc1CNC(=O)Nc1cccc2[nH]ncc12 [1-({4-[(1R,5S)-8-azabicyclo[3.2.1]octan-8-yl]-2-(propan-2-yl)phenyl}methyl)-3-1H-indazol-4-ylurea]
29 | 7.3 nM |  | O=C(NCc1ccc(N2CCCCC2)cc1)Nc1cccc2cnccc12 [1-isoquinolin-5-yl-3-{[4-(piperidin-1-yl)phenyl]methyl}urea]
30 |  | 19.8 nM | Cc1cc(CNC(=O)Nc2cccc3[nH]ncc23)ccc1N1[C@@H]2CCC[C@H]1CC2 [1-({4-[(1R,5S)-8-azabicyclo[3.2.1]octan-8-yl]-3-methylphenyl}methyl)-3-1H-indazol-4-ylurea]
31 |  | 10.3 nM | CC(C)(C)CCc1cc(N2[C@@H]3CCC[C@H]2CC3)ccc1CNC(=O)Nc1cccc2[nH]ncc12 [1-({4-[(1R,5S)-8-azabicyclo[3.2.1]octan-8-yl]-2-(3,3-dimethylbutyl)phenyl}methyl)-3-1H-indazol-4-ylurea]
32 | 3.3 nM |  | O=C(NCc1ccc(N2CCCCCC2)cc1)Nc1cccc2cnccc12 [3-{[4-(azepan-1-yl)phenyl]methyl}-1-isoquinolin-5-ylurea]
33 | 7360 nM |  | Cc1cc2c(NC(=O)NCc3ccc(N4Cc5ccccc5C4)c(F)c3)cccc2cn1 [3-{[4-(2,3-dihydro-1H-isoindol-2-yl)-3-fluorophenyl]methyl}-1-(3-methylisoquinolin-5-yl)urea]
34 | 14.2 nM |  | O=C(NCc1ccc(N2CCCCCC2)c(F)c1)Nc1cccc2[nH]ncc12 [1-{[4-(azepan-1-yl)-3-fluorophenyl]methyl}-3-1H-indazol-4-ylurea]
35 | 2.8 nM |  | O=C(NCc1ccc(N2CCCCCC2)c(F)c1)Nc1cccc2cnccc12 [3-{[4-(azepan-1-yl)-3-fluorophenyl]methyl}-1-isoquinolin-5-ylurea]
36 |  | 19 nM | Cn1ncc2c(NC(=O)NCc3ccc(N4[C@@H]5CCC[C@H]4CC5)cc3Cc3ccccc3)cccc21 [1-({4-[(1R,5S)-8-azabicyclo[3.2.1]octan-8-yl]-2-benzylphenyl}methyl)-3-(1-methyl-1H-indazol-4-yl)urea]
37 | 9.8 nM |  | Nc1cc2c(NC(=O)NCc3ccc(N4CCCCCC4)cc3)cccc2cn1 [1-(3-aminoisoquinolin-5-yl)-3-{[4-(azepan-1-yl)phenyl]methyl}urea]
38 | 4.6 nM |  | O=C(NCc1ccc(N2CCCCCC2)c(C(F)(F)F)c1)Nc1cccc2cnccc12 [3-{[4-(azepan-1-yl)-3-(trifluoromethyl)phenyl]methyl}-1-isoquinolin-5-ylurea]
39 |  | 902 nM | Cn1c2ccccc2c2cc(CNC(=O)Nc3cccc4[nH]ncc34)ccc21 [3-1H-indazol-4-yl-1-[(9-methyl-9H-carbazol-3-yl)methyl]urea]
40 | 190 nM |  | O=C(NCc1ccc(N2CCCCCC2)cc1Cl)Nc1cccc2[nH]ncc12 [1-{[4-(azepan-1-yl)-2-chlorophenyl]methyl}-3-1H-indazol-4-ylurea]

From BindingDB's records for doi:10.1021/jm070276i (Abbott Laboratories, 2007)
